Assay results as given in ChEMBL document CHEMBL1136198, “Pyrazolo[4,3-d]pyrimidines as new generation of cyclin-dependent kinase inhibitors” (Bioorg Med Chem Lett, 2003).

What was measured:
[1] = molecular target: Cyclin-dependent kinase 1/cyclin B (Homo sapiens, UniProt P06493); assay: Inhibitory concentration against Cyclin-dependent kinase 1-cyclin B; type: protein-complex assay
[2] = molecular target: K-562 cell line (Homo sapiens); settings: k562

SMILES | IC50 [1] | IC50 [2] | IC50 (K-562 (Homo sapiens))
CC(C)n1cnc2c(NCc3ccccc3O)ncnc21 | 4.4 µM | 125 uM dm**-3 | 
CC(C)c1n[nH]c2c(NCc3cccc(O)c3)ncnc12 | 1.7 µM |  | 88 µM
CC(C)n1cnc2c(Nc3cccc(Cl)c3)ncnc21 | 5.9 µM |  | 54 µM
CCCCCNc1ncnc2c1ncn2C(C)C | 6.9 µM | 144 uM dm**-3 | 
CC(C)n1cnc2c(NCc3ccc(O)cc3)ncnc21 | 4 µM | > 167 uM dm**-3 | 
COc1ccc(CNc2ncnc3c(C(C)C)n[nH]c23)cc1O | 1.1 µM |  | 26 µM
CCCCCNc1ncnc2c(C(C)C)n[nH]c12 | 1.2 µM |  | 61 µM
CC(C)n1cnc2c(NCc3ccccc3Br)ncnc21 | 23 µM |  | 49 µM
CC(C)c1n[nH]c2c(NCc3ccccc3Br)ncnc12 | 11 µM |  | 29 µM
CC(C)c1n[nH]c2c(NCc3ccc(O)cc3)ncnc12 |  | 112 uM dm**-3 | 
CC(C)=CCNc1ncnc2c1ncn2C(C)C | 17 µM | > 167 uM dm**-3 | 
CC(C)c1n[nH]c2c(Nc3cccc(Cl)c3)ncnc12 | 0.9 µM |  | 18.4 µM
CC(C)n1cnc2c(NCc3ccccc3)ncnc21 | 3.6 µM | 113 uM dm**-3 | 
COc1ccc(CNc2ncnc3c2ncn3C(C)C)cc1 | 3.8 µM | > 167 uM dm**-3 | 
COc1ccc(CNc2ncnc3c(C(C)C)n[nH]c23)cc1 |  |  | 46 µM
CC(C)c1n[nH]c2c(NCc3ccccc3)ncnc12 | 1.2 µM |  | 66 µM
CC(C)c1n[nH]c2c(NCc3ccco3)ncnc12 | 2.5 µM | > 167 uM dm**-3 | 
CC(C)=CCNc1ncnc2c(C(C)C)n[nH]c12 |  | 152 uM dm**-3 | 
CC(C)n1cnc2c(NCc3ccco3)ncnc21 | 9.1 µM | > 167 uM dm**-3 | 
CC(C)c1n[nH]c2c(NCc3ccccc3O)ncnc12 |  |  | 54 µM
COc1ccc(CNc2ncnc3c2ncn3C(C)C)cc1O | 4.5 µM | 104 uM dm**-3 | 
CC(C)n1cnc2c(NCc3cccc(O)c3)ncnc21 | 3.1 µM | > 167 uM dm**-3 | 
